According to PubChem BioAssay (NCI):
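Results reflect a 48-hour exposure of cells in 96-well plates to compound at five concentrations. Definition used: TGI = concentration required for complete inhibition of growth.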

How the values were obtained:
Assay in all cases: DTP human tumour cell line panel, 48 h
[1] = test system: RPMI-8226 leukemia
[2] = test system: RXF 393 renal
[3] = test system: ACHN renal
[4] = test system: SF-268 CNS
[5] = test system: OVCAR-3 ovarian
[6] = test system: NCI-H23 lung
[7] = test system: HCC-2998 colon
[8] = test system: HCT-15 colon
[9] = test system: PC-3 prostate
[10] = test system: A549 NSCLC
[11] = test system: HT29 colon
[12] = test system: DU-145 prostate
[13] = test system: A498 renal
[14] = test system: HS 578T breast
[15] = test system: KM12 colon
[16] = test system: HOP-62 NSCLC
[17] = test system: EKVX NSCLC
[18] = test system: SF-295 CNS

## C#C[C@]1(O)CC[C@H]2[C@@H]3CCC4=C/C(=N/NC(=O)c5cccc6cc7ccccc7nc56)CC[C@@H]4[C@H]3CC[C@@]21CC
[1]
  TGI: > 100 µM
[2]
  TGI: > 100 µM
[3]
  TGI: > 100 µM
[4]
  TGI: > 100 µM
[5]
  TGI: > 100 µM
[6]
  TGI: > 100 µM
[7]
  TGI: > 100 µM
[8]
  TGI: > 100 µM
[9]
  TGI: > 100 µM
[10]
  TGI: > 100 µM
[11]
  TGI: > 100 µM
[12]
  TGI: > 100 µM
[13]
  TGI: > 100 µM
[14]
  TGI: > 100 µM
[15]
  TGI: > 100 µM
[16]
  TGI: > 100 µM

## CC1=C(C)C1[N+](=O)[O-]
[1]
  TGI: > 100 µM
[2]
  TGI: > 100 µM
[3]
  TGI: > 100 µM
[4]
  TGI: > 100 µM
[5]
  TGI: > 100 µM
[17]
  TGI: > 100 µM
[6]
  TGI: > 100 µM
[7]
  TGI: > 100 µM
[8]
  TGI: > 100 µM
[9]
  TGI: > 100 µM
[10]
  TGI: > 100 µM
[11]
  TGI: > 100 µM
[12]
  TGI: > 100 µM
[13]
  TGI: > 100 µM
[14]
  TGI: > 100 µM
[15]
  TGI: > 100 µM
[18]
  TGI: > 100 µM
[16]
  TGI: > 100 µM

## O=[N+]([O-])c1cc2c(c([N+](=O)[O-])c1)NCc1ccccc1O2
[1]
  TGI: > 100 µM
[2]
  TGI: > 100 µM
[3]
  TGI: > 100 µM
[4]
  TGI: > 100 µM
[5]
  TGI: > 100 µM
[17]
  TGI: > 100 µM
[6]
  TGI: > 100 µM
[7]
  TGI: > 100 µM
[8]
  TGI: > 100 µM
[9]
  TGI: > 100 µM
[10]
  TGI: > 100 µM
[11]
  TGI: > 100 µM
[12]
  TGI: > 100 µM
[13]
  TGI: > 100 µM
[14]
  TGI: > 100 µM
[15]
  TGI: > 100 µM
[18]
  TGI: > 100 µM
[16]
  TGI: > 100 µM

## COc1cccc(-c2nc3ccccc3c(=O)[nH]2)c1OC
[1]
  TGI: 49.4 µM
[2]
  TGI: > 100 µM
[3]
  TGI: > 100 µM
[4]
  TGI: > 100 µM
[5]
  TGI: > 100 µM
[17]
  TGI: > 100 µM
[6]
  TGI: > 100 µM
[7]
  TGI: > 100 µM
[8]
  TGI: > 100 µM
[9]
  TGI: > 100 µM
[10]
  TGI: > 100 µM
[11]
  TGI: > 100 µM
[12]
  TGI: > 100 µM
[13]
  TGI: > 100 µM
[14]
  TGI: > 100 µM
[15]
  TGI: > 100 µM
[18]
  TGI: > 100 µM
[16]
  TGI: > 100 µM

## COc1cc([C@H]2CC(=O)C[C@H](c3cc(OC)c(OC)c(OC)c3)C23C(=O)c2ccccc2C3=O)cc(OC)c1OC
[1]
  TGI: > 100 µM
[2]
  TGI: 88.7 µM
[3]
  TGI: > 100 µM
[4]
  TGI: > 100 µM
[5]
  TGI: > 100 µM
[17]
  TGI: > 100 µM
[6]
  TGI: > 100 µM
[7]
  TGI: > 100 µM
[8]
  TGI: > 100 µM
[9]
  TGI: > 100 µM
[10]
  TGI: > 100 µM
[11]
  TGI: > 100 µM
[12]
  TGI: > 100 µM
[14]
  TGI: > 100 µM
[15]
  TGI: > 100 µM
[18]
  TGI: > 100 µM
[16]
  TGI: > 100 µM

## CN(C)CCCNc1c(C#N)[n+]([O-])c2cc(Cl)ccc2[n+]1[O-]
[1]
  TGI: 26.4 µM
[2]
  TGI: > 100 µM
[3]
  TGI: 22.2 µM
[4]
  TGI: > 64.4 µM
[5]
  TGI: > 34.9 µM
[17]
  TGI: 22.5 µM
[6]
  TGI: 23.5 µM
[7]
  TGI: 18.7 µM
[8]
  TGI: 18.6 µM
[9]
  TGI: > 41.3 µM
[10]
  TGI: 31.5 µM
[11]
  TGI: > 40 µM
[12]
  TGI: > 100 µM
[13]
  TGI: > 52.4 µM
[14]
  TGI: > 100 µM
[15]
  TGI: 26.9 µM
[18]
  TGI: > 49.1 µM
[16]
  TGI: > 48.7 µM

## N#Cc1cc(-c2nc3c(F)cccc3s2)ccc1N
[1]
  TGI: > 100 µM
[2]
  TGI: > 100 µM
[3]
  TGI: > 100 µM
[4]
  TGI: > 100 µM
[5]
  TGI: > 100 µM
[17]
  TGI: 0.894 µM
[6]
  TGI: > 100 µM
[8]
  TGI: > 100 µM
[9]
  TGI: > 100 µM
[10]
  TGI: > 100 µM
[11]
  TGI: > 100 µM
[12]
  TGI: > 100 µM
[13]
  TGI: > 100 µM
[14]
  TGI: > 100 µM
[15]
  TGI: > 100 µM
[18]
  TGI: > 100 µM
[16]
  TGI: > 100 µM

## Nc1nc2n[nH]nc2c(=O)[nH]1
[1]
  TGI: 15.7 µM
[2]
  TGI: 2.95 µM
[3]
  TGI: > 59.7 µM
[4]
  TGI: > 100 µM
[5]
  TGI: 73.8 µM
[17]
  TGI: > 100 µM
[6]
  TGI: > 100 µM
[7]
  TGI: > 100 µM
[8]
  TGI: > 100 µM
[9]
  TGI: > 100 µM
[10]
  TGI: > 100 µM
[11]
  TGI: > 100 µM
[12]
  TGI: > 57.5 µM
[13]
  TGI: 32.8 µM
[14]
  TGI: 20.4 µM
[15]
  TGI: > 100 µM
[18]
  TGI: > 33.1 µM
[16]
  TGI: 9.42 µM

## COC(=O)[C@@H](NC(=O)N(CCC#N)CCCN(C(=O)N[C@H](Cc1ccccc1)C(=O)OC)c1ccccc1)C(C)C
[1]
  TGI: > 100 µM
[2]
  TGI: > 100 µM
[3]
  TGI: > 100 µM
[4]
  TGI: > 100 µM
[5]
  TGI: > 100 µM
[17]
  TGI: > 100 µM
[6]
  TGI: > 100 µM
[7]
  TGI: > 100 µM
[8]
  TGI: > 100 µM
[9]
  TGI: > 100 µM
[10]
  TGI: > 100 µM
[12]
  TGI: > 100 µM
[13]
  TGI: > 100 µM
[14]
  TGI: > 100 µM
[15]
  TGI: > 100 µM
[18]
  TGI: > 100 µM
[16]
  TGI: > 100 µM

## C=CC[C@@]1([C@H](C=C)COCc2ccc(OC)cc2)CC[C@]2(C)OC(C)(C)[C@@H](c3ccccc3)N2C1=S
[1]
  TGI: > 100 µM
[2]
  TGI: > 100 µM
[3]
  TGI: > 100 µM
[4]
  TGI: > 100 µM
[5]
  TGI: > 100 µM
[17]
  TGI: > 100 µM
[6]
  TGI: > 100 µM
[7]
  TGI: > 100 µM
[8]
  TGI: > 100 µM
[9]
  TGI: > 100 µM
[10]
  TGI: > 100 µM
[11]
  TGI: > 100 µM
[12]
  TGI: > 100 µM
[13]
  TGI: > 100 µM
[14]
  TGI: > 100 µM
[15]
  TGI: > 100 µM
[18]
  TGI: > 100 µM
[16]
  TGI: > 100 µM

## O=C1C=CC2(O)OCCN(CCO)C2=C1 (stereo not given) (tested in a mixture with another compound)
[1]
  TGI: > 100 µM
[2]
  TGI: > 100 µM
[3]
  TGI: > 100 µM
[4]
  TGI: > 100 µM
[5]
  TGI: > 100 µM
[17]
  TGI: > 100 µM
[6]
  TGI: > 100 µM
[7]
  TGI: > 100 µM
[8]
  TGI: > 100 µM
[9]
  TGI: > 100 µM
[10]
  TGI: > 100 µM
[11]
  TGI: > 100 µM
[12]
  TGI: > 100 µM
[13]
  TGI: > 100 µM
[14]
  TGI: > 100 µM
[15]
  TGI: > 100 µM
[18]
  TGI: > 100 µM
[16]
  TGI: > 100 µM

## COc1cccc(N2C(=O)/C(=C\c3ccccc3)SC2c2cc(OC)c(OC)c(OC)c2)c1 (stereo not given)
[1]
  TGI: > 100 µM
[3]
  TGI: > 100 µM
[4]
  TGI: > 100 µM
[17]
  TGI: > 100 µM
[6]
  TGI: > 100 µM
[7]
  TGI: > 100 µM
[8]
  TGI: > 100 µM
[9]
  TGI: > 100 µM
[10]
  TGI: > 100 µM
[11]
  TGI: > 100 µM
[12]
  TGI: > 100 µM
[13]
  TGI: 67.7 µM
[14]
  TGI: > 100 µM
[15]
  TGI: > 100 µM
[18]
  TGI: > 100 µM
[16]
  TGI: > 100 µM

## COc1ccc2c(c1)-c1[nH]c3ccc(OC)cc3c1CC2
[1]
  TGI: 48.2 µM
[3]
  TGI: 36.5 µM
[4]
  TGI: 28.1 µM
[5]
  TGI: 32.9 µM
[17]
  TGI: 20.8 µM
[6]
  TGI: 25.8 µM
[7]
  TGI: 31.4 µM
[8]
  TGI: 24.8 µM
[9]
  TGI: 24.1 µM
[10]
  TGI: 30.2 µM
[11]
  TGI: 24.9 µM
[12]
  TGI: 32.9 µM
[14]
  TGI: 28 µM
[15]
  TGI: 19 µM
[18]
  TGI: 26.3 µM
[16]
  TGI: 30.9 µM
